This experiment can be described thus: Inhibition of Huntingtin polyQ 49 mutant in Huntington's disease patient derived human iPSC cells incubated for 48 hrs by HTRF assay. Type of experiment: cell-based. (In general: TR-FRET usually uses a lanthanide donor and a delayed reading to cut background.)

pIC50: −log10 of the molar value.

By pIC50 is commonly meant the IC50 on a negative log10 scale, so that one unit is a factor of ten. A higher pIC50 goes with a low IC50.

Regarding `Cc1cn2nc(-c3cc(F)c4nc(N5CCC(N(C)C)CC5)oc4c3)cc(C(F)(F)F)c2n1`, the pIC50 was greater than 7.00.

Take `Cc1cn2nc(-c3cc(F)c4nn(C5CCNCC5)nc4c3)cc(C(F)F)c2n1`: the negative-log IC50 (pIC50) was greater than 7.00. Then `Cc1cn2nc(-c3cc(F)c4nc(C5CCN(C6COC6)CC5)cn4c3)cc(C)c2n1`, with greater than 7.00; and `Cc1cn2nc(-c3cc(F)c4nc(C5CCNCC5)cn4c3)cc(C)c2n1`, with greater than 7.00; and `Cc1cn2nc(-c3cc(F)c4nc(C5CCN(C6CC6)CC5)cn4c3)cc(C(F)F)c2n1`, with greater than 7.00. The result for `Cc1cn2nc(-c3cc(F)c4nc(C5CCNC5)cn4c3)cc(C)c2n1` (stereo unspecified) reads greater than 7.00.

(Values after ChEMBL document CHEMBL5344454 (ACS Med Chem Lett, 2024).)
